Experiments:
Format in all cases: functional
HOP-62 = assay: Cytotoxicity against human HOP62 cells assessed as cell growth at 10^-4 M after 48 hrs by SRB assay relative to control; settings: HOP-62, 48 h, read-out: Activity
NCI-H226 = assay: Cytotoxicity against human NCI-H226 cells assessed as cell growth at 10^-4 M after 48 hrs by SRB assay relative to control; settings: NCI-H226, 48 h, read-out: Activity
[1] = Cytotoxicity against human HCT15 cells assessed as cell growth at 10^-4 M after 48 hrs by SRB assay relative to control; settings: HCT-15, 48 h, read-out: Activity
SW-620 = assay: Cytotoxicity against human SW620 cells assessed as cell growth at 10^-4 M after 48 hrs by SRB assay relative to control; settings: SW-620, 48 h, read-out: Activity
Malme-3M = assay: Cytotoxicity against human MALME-3M cells after 48 hrs by SRB assay; settings: for CC50: read-out: LC50 (the source's name)
[2] = Cytotoxicity against human OVCAR8 cells after 48 hrs by SRB assay; settings: OVCAR-8, 48 h; for CC50: read-out: LC50 (the source's name)
A498 = assay: Cytotoxicity against human A498 cells after 48 hrs by SRB assay; settings: A498, 48 h; for CC50: read-out: LC50 (the source's name)
SNB-75 = assay: Cytotoxicity against human SNB75 cells assessed as cell growth at 10^-4 M after 48 hrs by SRB assay relative to control; settings: SNB-75, 48 h, read-out: Activity
MDA-MB-435 = assay: Cytotoxicity against human MDA-MB-435 cells assessed as cell growth at 10^-4 M after 48 hrs by SRB assay relative to control; settings: MDA-MB-435, 48 h, read-out: Activity
[3] = Cytotoxicity against human Hs 578T cells after 48 hrs by SRB assay
K562 = assay: Cytotoxicity against human K562 cells assessed as cell growth at 10^-8 M after 48 hrs by SRB assay relative to control; settings: K562, 48 h, read-out: Activity
MOLT-4 [4] = assay: Cytotoxicity against human MOLT4 cells assessed as cell growth at 10^-8 M after 48 hrs by SRB assay relative to control; settings: MOLT-4, 48 h, read-out: Activity
A549 = assay: Cytotoxicity against human A549 cells assessed as cell growth at 10^-8 M after 48 hrs by SRB assay relative to control; settings: A549, 48 h, read-out: Activity
NCI-H23 [5] = assay: Cytotoxicity against human NCI-H23 cells assessed as cell growth at 10^-8 M after 48 hrs by SRB assay relative to control; settings: NCI-H23, 48 h, read-out: Activity
SK-MEL-5 = assay: Cytotoxicity against human SK-MEL-5 cells assessed as cell growth at 10^-4 M after 48 hrs by SRB assay relative to control; settings: SK-MEL-5, 48 h, read-out: Activity
[6] = Cytotoxicity against human UO31 cells assessed as cell growth at 10^-4 M after 48 hrs by SRB assay relative to control; settings: UO-31, 48 h, read-out: Activity
MDA-MB-468 = assay: Cytotoxicity against human MDA-MB-468 cells assessed as cell growth at 10^-4 M after 48 hrs by SRB assay relative to control; settings: MDA-MB-468, 48 h, read-out: Activity
[7] = Cytotoxicity against human OVCAR3 cells assessed as cell growth at 10^-8 M after 48 hrs by SRB assay relative to control; settings: OVCAR-3, 48 h, read-out: Activity
[8] = Cytotoxicity against human NCI-ADR-RES cells assessed as cell growth at 10^-8 M after 48 hrs by SRB assay relative to control; settings: read-out: Activity
MDA-MB-231 = assay: Cytotoxicity against human MDA-MB-231 cells assessed as cell growth at 10^-8 M after 48 hrs by SRB assay relative to control; settings: MDA-MB-231, 48 h, read-out: Activity
HL-60(TB) = assay: Cytotoxicity against human HL-60(TB) cells assessed as cell growth at 10^-7 M after 48 hrs by SRB assay relative to control; settings: HL-60, 48 h, read-out: Activity
MOLT-4 [9] = assay: Cytotoxicity against human MOLT4 cells assessed as cell growth at 10^-7 M after 48 hrs by SRB assay relative to control; settings: MOLT-4, 48 h, read-out: Activity
SNB-19 = assay: Cytotoxicity against human SNB19 cells assessed as cell growth at 10^-7 M after 48 hrs by SRB assay relative to control; settings: SNB-19, 48 h, read-out: Activity
NCI-H460 [10] = assay: Cytotoxicity against human NCI-H460 cells after 48 hrs by SRB assay; settings: NCI-H460, 48 h; for CC50: read-out: LC50 (the source's name)
COLO 205 = assay: Cytotoxicity against human COLO205 cells after 48 hrs by SRB assay; settings: COLO 205, 48 h; for CC50: read-out: LC50 (the source's name)
[11] = Cytotoxicity against human OVCAR3 cells assessed as cell growth at 10^-7 M after 48 hrs by SRB assay relative to control; settings: OVCAR-3, 48 h, read-out: Activity
[12] = Cytotoxicity against human OVCAR5 cells assessed as cell growth at 10^-7 M after 48 hrs by SRB assay relative to control; settings: OVCAR-5, 48 h, read-out: Activity
[13] = Cytotoxicity against human OVCAR8 cells assessed as cell growth at 10^-7 M after 48 hrs by SRB assay relative to control; settings: OVCAR-8, 48 h, read-out: Activity
NCI-H23 [14] = assay: Cytotoxicity against human NCI-H23 cells assessed as cell growth at 10^-6 M after 48 hrs by SRB assay relative to control; settings: NCI-H23, 48 h, read-out: Activity
NCI-H460 [15] = assay: Cytotoxicity against human NCI-H460 cells assessed as cell growth at 10^-6 M after 48 hrs by SRB assay relative to control; settings: NCI-H460, 48 h, read-out: Activity
[16] = Cytotoxicity against human HCT116 cells assessed as cell growth at 10^-6 M after 48 hrs by SRB assay relative to control; settings: HCT-116, 48 h, read-out: Activity
[17] = Cytotoxicity against human OVCAR8 cells assessed as cell growth at 10^-6 M after 48 hrs by SRB assay relative to control; settings: OVCAR-8, 48 h, read-out: Activity
[18] = Cytotoxicity against human SKOV3 cells assessed as cell growth at 10^-6 M after 48 hrs by SRB assay relative to control; settings: SK-OV-3, 48 h, read-out: Activity
RXF 393 = assay: Cytotoxicity against human RXF393 cells assessed as cell growth at 10^-6 M after 48 hrs by SRB assay relative to control; settings: RXF 393, 48 h, read-out: Activity
[19] = Cytotoxicity against human UO31 cells assessed as cell growth at 10^-6 M after 48 hrs by SRB assay relative to control; settings: UO-31, 48 h, read-out: Activity

Structure (SMILES): COc1ccc(CCN2COc3c([C@@H](C)CCC=C(C)C)ccc(C)c3C2)cc1OC
- growth at 100 µM (HOP-62): 100%
- growth at 100 µM (NCI-H226): -93%
- growth at 100 µM [1]: -87%
- growth at 100 µM (SW-620): -86%
- GI50 (Malme-3M): 1.53 µM
- TGI (Malme-3M): 3.18 µM
- CC50 (Malme-3M): 6.61 µM
- GI50 [2]: 4.21 µM
- TGI [2]: 20.2 µM
- CC50 [2]: 89.5 µM
- GI50 (A498): 1.96 µM
- TGI (A498): 11.9 µM
- CC50 (A498): 37.1 µM
- growth at 100 µM (SNB-75): -50%
- growth at 100 µM (MDA-MB-435): -78%
- GI50 [3]: 3.94 µM
- LC50 [3]: 65.2 µM
- TGI [3]: 17.3 µM
- growth at 0.01 µM (K562): 102%
- growth at 0.01 µM (MOLT-4 [4]): 90%
- growth at 0.01 µM (A549): 87%
- growth at 0.01 µM (NCI-H23 [5]): 97%
- growth at 100 µM (SK-MEL-5): -100%
- growth at 100 µM [6]: -96%
- growth at 100 µM (MDA-MB-468): -92%
- growth at 0.01 µM [7]: 95%
- growth at 0.01 µM [8]: 98%
- growth at 0.01 µM (MDA-MB-231): 100%
- growth at 0.1 µM (HL-60(TB)): 99%
- growth at 0.1 µM (MOLT-4 [9]): 89%
- growth at 0.1 µM (SNB-19): 96%
- GI50 (NCI-H460 [10]): 2.06 µM
- TGI (NCI-H460 [10]): 4.3 µM
- CC50 (NCI-H460 [10]): 8.95 µM
- GI50 (COLO 205): 1790 nM
- TGI (COLO 205): 3.19 µM
- CC50 (COLO 205): 5.7 µM
- growth at 0.1 µM [11]: 91%
- growth at 0.1 µM [12]: 98%
- growth at 0.1 µM [13]: 95%
- growth at 1 µM (NCI-H23 [14]): 104%
- growth at 1 µM (NCI-H460 [15]): 99%
- growth at 1 µM [16]: 97%
- growth at 1 µM [17]: 94%
- growth at 1 µM [18]: 102%
- growth at 1 µM (RXF 393): 76%
- growth at 1 µM [19]: 76%

Structure (SMILES): CC(C)=CCC[C@H](C)c1ccc(C)c2c1OCN(CC1CCNCC1)C2
- growth at 100 µM (HOP-62): -94%
- growth at 100 µM (NCI-H226): -84%
- growth at 100 µM [1]: -83%
- growth at 100 µM (SW-620): -87%
- GI50 (Malme-3M): 17.7 µM
- TGI (Malme-3M): 35.3 µM
- CC50 (Malme-3M): 70.2 µM
- GI50 [2]: 18.4 µM
- TGI [2]: 34.5 µM
- CC50 [2]: 64.6 µM
- GI50 (A498): 12.3 µM
- TGI (A498): 26 µM
- CC50 (A498): 55 µM
- growth at 100 µM (SNB-75): -99%
- growth at 100 µM (MDA-MB-435): -83%
- GI50 [3]: 13.3 µM
- LC50 [3]: 67 µM
- TGI [3]: 29.9 µM
- growth at 0.01 µM (K562): 97%
- growth at 0.01 µM (MOLT-4 [4]): 106%
- growth at 0.01 µM (A549): 95%
- growth at 0.01 µM (NCI-H23 [5]): 94%
- growth at 100 µM (SK-MEL-5): -85%
- growth at 100 µM [6]: -86%
- growth at 100 µM (MDA-MB-468): -80%
- growth at 0.01 µM [7]: 99%
- growth at 0.01 µM [8]: 104%
- growth at 0.01 µM (MDA-MB-231): 101%
- growth at 0.1 µM (HL-60(TB)): 91%
- growth at 0.1 µM (MOLT-4 [9]): 104%
- growth at 0.1 µM (SNB-19): 95%
- GI50 (NCI-H460 [10]): 5.36 µM
- TGI (NCI-H460 [10]): 16.6 µM
- CC50 (NCI-H460 [10]): 43.1 µM
- GI50 (COLO 205): 1860 nM
- TGI (COLO 205): 3.41 µM
- CC50 (COLO 205): 6.25 µM
- growth at 0.1 µM [11]: 105%
- growth at 0.1 µM [12]: 87%
- growth at 0.1 µM [13]: 101%
- growth at 1 µM (NCI-H23 [14]): 105%
- growth at 1 µM (NCI-H460 [15]): 113%
- growth at 1 µM [16]: 104%
- growth at 1 µM [17]: 100%
- growth at 1 µM [18]: 100%
- growth at 1 µM (RXF 393): 125%
- growth at 1 µM [19]: 91%

Structure (SMILES): CC(C)=CCC[C@H](C)c1ccc(C)c(CNCC2CCNCC2)c1O
- growth at 100 µM (HOP-62): -74%
- growth at 100 µM (NCI-H226): 37%
- growth at 100 µM [1]: -11%
- growth at 100 µM (SW-620): -82%
- GI50 (Malme-3M): 4.5 µM
- TGI (Malme-3M): 9.68 µM
- CC50 (Malme-3M): 20.8 µM
- GI50 [2]: 4.35 µM
- TGI [2]: 9.66 µM
- CC50 [2]: 21.5 µM
- GI50 (A498): 12.1 µM
- TGI (A498): > 25 µM
- CC50 (A498): > 25 µM
- growth at 100 µM (SNB-75): -32%
- growth at 100 µM (MDA-MB-435): -66%
- GI50 [3]: 6.53 µM
- LC50 [3]: > 25 µM
- TGI [3]: > 25 µM
- growth at 0.01 µM (K562): 103%
- growth at 0.01 µM (MOLT-4 [4]): 107%
- growth at 0.01 µM (A549): 101%
- growth at 0.01 µM (NCI-H23 [5]): 94%
- growth at 100 µM (SK-MEL-5): 100%
- growth at 100 µM [6]: -29%
- growth at 100 µM (MDA-MB-468): -90%
- growth at 0.01 µM [7]: 105%
- growth at 0.01 µM [8]: 100%
- growth at 0.01 µM (MDA-MB-231): 105%
- growth at 0.1 µM (HL-60(TB)): 101%
- growth at 0.1 µM (MOLT-4 [9]): 96%
- growth at 0.1 µM (SNB-19): 91%
- GI50 (NCI-H460 [10]): 4.45 µM
- TGI (NCI-H460 [10]): 9.23 µM
- CC50 (NCI-H460 [10]): 19.1 µM
- GI50 (COLO 205): 3980 nM
- TGI (COLO 205): 7.57 µM
- CC50 (COLO 205): 14.4 µM
- growth at 0.1 µM [11]: 104%
- growth at 0.1 µM [12]: 96%
- growth at 0.1 µM [13]: 104%
- growth at 1 µM (NCI-H23 [14]): 94%
- growth at 1 µM (NCI-H460 [15]): 102%
- growth at 1 µM [16]: 105%
- growth at 1 µM [17]: 100%
- growth at 1 µM [18]: 104%
- growth at 1 µM (RXF 393): 95%
- growth at 1 µM [19]: 84%
